Source: patent US8377955B2, “Branched 3- and 6-substituted quinolines as CGRP receptors antagonists” (Merck, Sharp & Dohme, Corp., priority 2008, dated 2013)
Read-outs that look alike come from different tables or passages of the source. Blank lines part the entries; values can stand above or below the molecule they belong to. No end group written: not given here.

How the values were obtained:
Human CGRP receptor = molecular target: T1, Human CGRP receptor (Homo sapiens, UniProt O60894+Q16602); assay: Human CGRP receptor binding (125I-CGRP displacement)
T1 construct: expressed in transfected cells; membranes
Experimental: NATIVE RECEPTOR BINDING ASSAY: The binding of ^125I-CGRP to receptors in SK-N-MC cell membranes was carried out essentially as described (Edvinsson et al. (2001) Eur. J. Pharmacol. 415, 39-44). Briefly, membranes (25 μg) were incubated in 1 mL of binding buffer [10 mM HEPES, pH 7.4, 5 mM MgCl2 and 0.2% bovine serum albumin (BSA)] containing 10 pM ^125I-CGRP and antagonist. After incubation at room temperature for 3 h, the assay was terminated by filtration through GFB glass fibre filter plates (PerkinElmer) that had been blocked with 0.5% polyethyleneimine for 3 h. The filters were washed three times with ice-cold assay buffer (10 mM HEPES, pH 7.4 and 5 mM MgCl2), then the plates were air dried. Scintillation fluid (50 μL) was added and the radioactivity was counted on a Topcount (Packard Instrument). Data analysis was carried out by using Prism and the Ki was determined by using the Cheng-Prusoff equation (Cheng & Prusoff (1973) Biochem. Pharmacol. 22, 3099-3108).
RECOMBINANT RECEPTOR: Human CL receptor (Genbank accession number L76380) was subcloned into the expression vector pIREShyg2 (BD Biosciences Clontech) as a 5′NheI and 3′ PmeI fragment. Human RAMP1 (Genbank accession number AJ001014) was subcloned into the expression vector pIRESpuro2 (BD Biosciences Clontech) as a 5′NheI and 3′NotI fragment. HEK 293 cells (human embryonic kidney cells; ATCC #CRL-1573) were cultured in DMEM with 4.5 g/L glucose, 1 mM sodium pyruvate and 2 mM glutamine supplemented with 10% fetal bovine serum […], 100 units/mL penicillin and 100 μg/mL streptomycin, and maintained at 37° C. and 95% humidity. Cells were subcultured by treatment with 0.25% trypsin with 0.1% EDTA in HBSS. Stable cell line generation was accomplished by co-transfecting 10 μg of DNA with 30 μg Lipofectamine 2000 (Invitrogen) in 75 cm^2 flasks. CL receptor and RAMP1 expression constructs were co-transfected in equal amounts. Twenty-four hours after transfection the cells were diluted and selective medium (growth medium+300 μg/mL hygromycin and 1 μg/mL puromycin) was added the following day. A clonal cell line was generated by single cell deposition utilizing a FACS Vantage SE (Becton Dickinson). Growth medium was adjusted to 150 μg/mL hygromycin and 0.5 μg/mL puromycin for cell propagation.
RECOMBINANT RECEPTOR BINDING ASSAY: Cells expressing recombinant human CL receptor/RAMP1 were washed with PBS and harvested in harvest buffer containing 50 mM HEPES, 1 mM EDTA and Complete protease inhibitors (Roche). The cell suspension was disrupted with a laboratory homogenizer and centrifuged at 48,000 g to isolate membranes. The pellets were resuspended in harvest buffer plus 250 mM sucrose and stored at −70° C. For binding assays, 20 μg of membranes were incubated in 1 ml binding buffer (10 mM HEPES, pH 7.4, 5 mM MgCl2, and 0.2% BSA) for 3 hours at room temperature containing 10 pM ^125I-hCGRP (GE Healthcare) and antagonist. The assay was terminated by filtration through 96-well GFB glass fiber filter plates (PerkinElmer) that had been blocked with 0.05% polyethyleneimine. […]
[formula] Where Y is observed CPM bound, Ymax is total bound counts, Ymin is non specific bound counts, (Ymax−Ymin) is specific bound counts, % Imax is the maximum percent inhibition, % I min is the minimum percent inhibition, radiolabel is the probe, and the Kd is the apparent dissociation constant for the radioligand for the receptor as determined by Hot saturation experiments.

[1] = system: acute attacks of migraine; settings: clinical trials (Olesen et al. 2004); cited from earlier work
[2] = system: headache induced by CGRP infusion; settings: control group (Petersen et al. 2005); cited from earlier work
facial blood flow [3] = settings: marmoset, electrical stimulation of the trigeminal ganglion (Dodds et al. 2000); cited from earlier work
middle meningeal artery = settings: rats, electrical stimulation of the dura mater, prior administration (Williamson et al. 1997); cited from earlier work
facial blood flow [4] = settings: rat, trigeminal ganglion stimulation (Escott et al. 1995); cited from earlier work
[5] = read-out: Human CGRP receptor binding Ki
[6] = table of Examples 32-37, read-out: Ki

T1 sequence (Q16602 23-461): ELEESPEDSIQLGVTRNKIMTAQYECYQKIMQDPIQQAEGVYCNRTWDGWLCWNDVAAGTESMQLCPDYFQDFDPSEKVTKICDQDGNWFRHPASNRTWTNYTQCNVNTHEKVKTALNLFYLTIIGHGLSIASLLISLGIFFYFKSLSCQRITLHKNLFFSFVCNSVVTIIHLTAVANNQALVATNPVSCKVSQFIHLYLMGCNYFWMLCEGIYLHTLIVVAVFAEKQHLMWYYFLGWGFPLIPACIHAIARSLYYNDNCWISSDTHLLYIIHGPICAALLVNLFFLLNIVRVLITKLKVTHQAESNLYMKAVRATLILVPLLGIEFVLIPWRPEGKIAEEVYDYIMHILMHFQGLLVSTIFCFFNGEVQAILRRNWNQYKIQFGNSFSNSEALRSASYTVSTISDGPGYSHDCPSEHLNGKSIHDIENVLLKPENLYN
T1 sequence (O60894 27-148): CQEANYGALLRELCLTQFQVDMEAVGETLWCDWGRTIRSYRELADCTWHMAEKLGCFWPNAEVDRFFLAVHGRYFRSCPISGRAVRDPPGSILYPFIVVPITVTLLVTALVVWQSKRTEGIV

Ki (Human CGRP receptor; [5]): 0.05 nM
Molecule: CC(c1cc(F)cc(F)c1)N(Cc1cnc2cc3c(cc2c1)C[C@@]1(C3)C(=O)Nc2ncccc21)C(=O)C1CCOCC1 (stereo in doubt) [Example 1, N-[(1R)-1-(3,5-Difluorophenyl)ethyl]-N-{[(7S)-2′-oxo-1′,2′,6,8-tetrahydrospiro-[cyclopenta[g]quinoline-7,3′-pyrrolo[2,3-b]pyridin]-3-yl]methyl}tetrahydro-2H-pyran-4-carboxamide]

Molecule: NCCCC[C@H](NC(=O)[C@@H](Cc1cc(Br)c(O)c(Br)c1)NC(=O)N1CCC(N2Cc3ccccc3NC2=O)CC1)C(=O)N1CCN(c2ccncc2)CC1 [BIBN4096BS]
efficacy in treating acute attacks of migraine [1]: effective in treating acute attacks of migraine
prevention of headache induced by CGRP infusion [2]: able to prevent headache induced by CGRP infusion
effect on increase in facial blood flow (facial blood flow [3]): blocked

Ki (Human CGRP receptor; [5]): 60 nM
Molecule: CCOC(=O)CN(Cc1ccccc1)C(=O)c1cnc2cc3c(cc2c1)C[C@@]1(C3)C(=O)Nc2ncccc21 [Example 2, Ethyl(benzyl{[(7S)-2′-oxo-1′,2′,6,8-tetrahydrospiro[cyclopenta[g]quinoline-7,3′-pyrrolo[2,3-b]pyridin]-3-yl]carbonyl}amino)acetate]

Ki (Human CGRP receptor; [6]): 120 nM
Molecule: CC(C)(C)OC(=O)[C@H](NC(=O)c1cnc2cc3c(cc2c1)C[C@@]1(C3)C(=O)Nc2ncccc21)c1ccccc1 [Example 33]

Ki (Human CGRP receptor; [6]): 140 nM
Molecule: CC(C)(C)OC(=O)[C@@H](NC(=O)c1cnc2cc3c(cc2c1)C[C@@]1(C3)C(=O)Nc2ncccc21)c1ccccc1 [Example 34]

Ki (Human CGRP receptor; [6]): 76 nM
Molecule: CC(C)(C)OC(=O)CC(NC(=O)c1cnc2cc3c(cc2c1)C[C@@]1(C3)C(=O)Nc2ncccc21)c1ccccc1 (stereo partly shown) [Example 36]

Molecule: CGRP (8-37): a peptide CGRP antagonist; fragment of CGRP that lacks seven N-terminal amino acid residues (VTHRLAGLLSRSGGVVKNNFVPTNVGSKAF; ends and bridges not checked; UniProt P06881 90-119, looked up, fragment)
effect on increase in diameter of the middle meningeal artery (middle meningeal artery): blocked
effect on increased facial blood flow (facial blood flow [4]): inhibited
